Measurements published in patent publication US20070249670A1, “Glycogen Phosphorylase Inhibitor Compounds and Pharmaceutical Compositions Thereof” (SMITHKLINE BEECHAM CORPORATION, priority 2004, published 2007).
Structures can show the parent of a compound that is named as a salt.

Biological target: T1, human liver glycogen phosphorylase a (HLGPa) (Homo sapiens, UniProt P06737)
T1 construct: creating a full-length cDNA fused at the 5′ end to codons for methionine-glycine-alanine-histidine; 6xHis tag (leader Met-Gly-Ala-His6-Gly-Gly) (N); made in house; host or cells: E. coli (bacterial expression plasmid pTXK1007LTev)
T1 sequence (P06737 2-847 limits assumed): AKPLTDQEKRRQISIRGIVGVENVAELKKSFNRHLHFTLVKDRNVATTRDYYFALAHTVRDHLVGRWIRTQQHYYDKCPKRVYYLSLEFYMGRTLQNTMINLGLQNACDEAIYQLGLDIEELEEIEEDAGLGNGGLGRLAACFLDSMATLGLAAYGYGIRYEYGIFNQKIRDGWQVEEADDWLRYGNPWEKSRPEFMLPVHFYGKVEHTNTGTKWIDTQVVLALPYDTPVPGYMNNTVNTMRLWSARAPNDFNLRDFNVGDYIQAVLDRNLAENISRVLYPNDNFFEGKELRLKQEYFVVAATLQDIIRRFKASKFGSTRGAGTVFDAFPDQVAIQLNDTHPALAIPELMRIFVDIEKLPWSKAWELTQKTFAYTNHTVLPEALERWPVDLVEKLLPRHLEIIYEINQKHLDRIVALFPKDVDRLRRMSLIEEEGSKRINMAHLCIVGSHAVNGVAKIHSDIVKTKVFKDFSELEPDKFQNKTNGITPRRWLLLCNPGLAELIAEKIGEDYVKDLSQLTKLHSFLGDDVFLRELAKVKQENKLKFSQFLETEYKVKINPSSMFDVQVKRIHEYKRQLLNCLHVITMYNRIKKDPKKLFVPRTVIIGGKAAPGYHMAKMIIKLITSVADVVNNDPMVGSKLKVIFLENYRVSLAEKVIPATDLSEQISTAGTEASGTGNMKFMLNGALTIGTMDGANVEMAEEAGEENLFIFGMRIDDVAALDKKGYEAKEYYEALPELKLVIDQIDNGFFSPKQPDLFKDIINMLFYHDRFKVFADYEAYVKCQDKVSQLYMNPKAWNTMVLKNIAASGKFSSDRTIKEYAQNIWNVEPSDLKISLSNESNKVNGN
Assay: Human liver glycogen phosphorylase a enzymatic activity assay (coupled, fluorescent resorufin readout, with and without 10 mM glucose)
Type: biochemical
Conditions: human liver glycogen phosphorylase a; table does not say whether with or without 10 mM glucose

IC50 | Compound
120 nM | Cc1cc(C)c(NC(=O)Nc2cc3ccccc3cc2C(=O)NC(CCC(C)CC(C)(C)C)C(=O)O)c(C)c1 (stereo not drawn) [Example 264, 5,7,7-trimethyl-2-({[3-({[(2,4,6-trimethylphenyl)amino]carbonyl}amino)-2-naphthalenyl]carbonyl}amino)octanoic acid]
50 nM | Cc1cc(C)c(CC(=O)Nc2cc3ccccc3cc2C(=O)N[C@H](C(=O)O)[C@@H](C)OC(C)(C)C)c(C)c1 [Example 268, O-(1,1-dimethylethyl)-N-[(3-{[(2,4,6-trimethylphenyl)acetyl]amino}-2-naphthalenyl)carbonyl]-L-threonine]
210 nM | Cc1cc(C)c(NC(=O)Nc2cc3ccccc3cc2C(=O)N[C@@](C)(CC(C)C)C(=O)O)c(C)c1 [Example 269, 2-methyl-N-{[3-({[(2,4,6-trimethylphenyl)amino]carbonyl}amino)-2-naphthalenyl]carbonyl}leucine]
10300 nM | Cc1cc(C)c(-c2ccc(C(=O)Nc3cc4ccccc4cc3C(=O)N[C@H](C(=O)O)C3CCCCC3)o2)c(C)c1 [Example 270, (2S)-cyclohexyl({[3-({[5-(2,4,6-trimethylphenyl)-2-furanyl]carbonyl}amino)-2-naphthalenyl]carbonyl}amino)ethanoic acid]
38 nM | COCCOC[C@H](NC(=O)c1cc2ccccc2cc1NC(=O)Nc1c(C)cc(C)cc1C)C(=O)O [Example 272, O-[2-(methyloxy)ethyl]-N-{[3-({[(2,4,6-trimethylphenyl)amino]carbonyl}amino)-2-naphthalenyl]carbonyl}-L-serine]
45 nM | Cc1cc(C)c(NC(=O)Nc2cc3ccccc3cc2C(=O)N[C@@H](COC2CCOCC2)C(=O)O)c(C)c1 [Example 276, O-(tetrahydro-2H-pyran-4-yl)-N-{[3-({[(2,4,6-trimethylphenyl)amino]carbonyl}amino)-2-naphthalenyl]carbonyl}-L-serine]
3000 nM | O=C(Nc1cc2ccccc2cc1C(=O)NC1(C(=O)O)CCCC1)Nc1c(Cl)cc(Cl)cc1Cl [Example 279, 1-({[3-({[(2,4,6-Trichlorophenyl)amino]carbonyl}amino)-2-naphthalenyl]carbonyl}amino)cyclopentanecarboxylic acid]
1620 nM | O=C(Nc1cc2ccccc2cc1C(=O)NC1(C(=O)O)CCCCC1)Nc1c(Cl)cc(Cl)cc1Cl [Example 281, 1-({[3-({[(2,4,6-trichlorophenyl)amino]carbonyl}amino)-2-naphthalenyl]carbonyl}amino)cyclohexanecarboxylic acid]
1150 nM | Cc1cc(C)c(NC(=O)Nc2cc3ccccc3cc2C(=O)NC2(C(=O)O)CCOCC2)c(C)c1 [Example 282, 4-({[3-({[(2,4,6-Trimethylphenyl)amino]carbonyl}amino)-2-naphthalenyl]carbonyl}amino)tetrahydro-2H-pyran-4-carboxylic acid]
7180 nM | O=C(Nc1cc2ccccc2cc1C(=O)NC1(C(=O)O)CCOCC1)Nc1c(Cl)cccc1Cl [Example 283, 4-({[3-({[(2,6-Dichlorophenyl)amino]carbonyl}amino)-2-naphthalenyl]carbonyl}amino)tetrahydro-2H-pyran-4-carboxylic acid]
2310 nM | O=C(Nc1cc2ccccc2cc1C(=O)NC1(C(=O)O)CCSCC1)Nc1c(Cl)cc(Cl)cc1Cl [Example 284, 4-({[3-({[(2,4,6-Trichlorophenyl)amino]carbonyl}amino)-2-naphthalenyl]carbonyl}amino)tetrahydro-2H-thiopyran-4-carboxylic acid]
3310 nM | Cc1cc(C)c(NC(=O)Nc2cc3ccccc3cc2C(=O)NC2(C(=O)O)CCS(=O)(=O)CC2)c(C)c1 [Example 285, 4-({[3-({[(2,4,6-Trimethylphenyl)amino]carbonyl}amino)-2-naphthalenyl]carbonyl}amino)tetrahydro-2H-thiopyran-4-carboxylic acid 1,1-dioxide]
1380 nM | O=C(Nc1cc2ccccc2cc1C(=O)NC1(C(=O)O)CCN(Cc2ccccc2)CC1)Nc1c(Cl)cccc1Cl [Example 286, 4-({[3-({[(2,6-Dichlorophenyl)amino]carbonyl}amino)-2-naphthalenyl]carbonyl}amino)-1-(phenylmethyl)-4-piperidinecarboxylic acid]
430 nM | Cc1cc(C)c(NC(=O)Nc2cc3ccccc3cc2C(=O)NC2(C(=O)O)CCN(C(=O)OC(C)(C)C)CC2)c(C)c1 [Example 287, 1-{[(1,1-Dimethylethyl)oxy]carbonyl}-4-({[3-({[(2,4,6-trimethylphenyl)amino]carbonyl}amino)-2-naphthalenyl]carbonyl}amino)-4-piperidinecarboxylic acid]
6170 nM | Cc1cc(C)c(NC(=O)Nc2cc3ccccc3cc2C(=O)NC2(C(=O)O)CCNCC2)c(C)c1 [Example 288, 4-({[3-({[(2,4,6-trimethylphenyl)amino]carbonyl}amino)-2-naphthalenyl]carbonyl}amino)-4-piperidinecarboxylic acid trifluoroacetate]
4390 nM | CCCCN1CCC(NC(=O)c2cc3ccccc3cc2NC(=O)Nc2c(C)cc(C)cc2C)(C(=O)O)CC1 [Example 289, 1-Butyl-4-({[3-({[(2,4,6-trimethylphenyl)amino]carbonyl}amino)-2-naphthalenyl]carbonyl}amino)-4-piperidinecarboxylic acid]
1240 nM | CCCC(=O)N1CCC(NC(=O)c2cc3ccccc3cc2NC(=O)Nc2c(C)cc(C)cc2C)(C(=O)O)CC1 [Example 290, 1-Butanoyl-4-({[3-({[(2,4,6-trimethylphenyl)amino]carbonyl}amino)-2-naphthalenyl]carbonyl}amino)-4-piperidinecarboxylic acid]
6590 nM | O=C1CCC(NC(=O)c2cc3ccccc3cc2NC(=O)Nc2c(Cl)cccc2Cl)(C(=O)O)CC1 [Example 292, 1-({[3-({[(2,6-dichlorophenyl)amino]carbonyl}amino)-2-naphthalenyl]carbonyl}amino)-4-oxocyclohexanecarboxylic acid]
2530 nM | Cc1cc(C)c(NC(=O)Nc2cc3ccccc3cc2C(=O)NC2(C(=O)O)CCC(NCc3ccccc3)CC2)c(C)c1 (stereo not drawn) [Example 294, 4-[(phenylmethyl)amino]-1-({[3-({[(2,4,6-trimethylphenyl)amino]carbonyl}amino)-2-naphthalenyl]carbonyl}amino)cyclohexanecarboxylic acid]
5560 nM | Cc1cc(C)c(NC(=O)Nc2cc3ccccc3cc2C(=O)NC2(C(=O)O)CCC(NCc3ccccc3)CC2)c(C)c1 (stereo not drawn) [Example 295, 4-[(phenylmethyl)amino]-1-({[3-({[(2,4,6-trimethylphenyl)amino]carbonyl}amino)-2-naphthalenyl]carbonyl}amino)cyclohexanecarboxylic acid]
540 nM | Cc1cc(C)c(NC(=O)Nc2cc3ccccc3cc2C(=O)NC2(C(=O)O)CCC(=NO)CC2)c(C)c1 (stereo not drawn) [Example 296, 4-(hydroxyimino)-1-({[3-({[(2,4,6-trimethylphenyl)amino]carbonyl}amino)-2-naphthalenyl]carbonyl}amino)cyclohexanecarboxylic acid]
15600 nM | Cc1cc(C)c(NC(=O)Nc2nc3ccccc3cc2C(=O)N[C@H](C(=O)O)C2CCCCC2)c(C)c1 [Example 297, (2S)-cyclohexyl({[2-({[(2,4,6-trimethylphenyl)amino]carbonyl}amino)-3-quinolinyl]carbonyl}amino)ethanoic acid]
150 nM | O=C(Nc1cc2ccccc2nc1C(=O)N[C@H](C(=O)O)C1CCCCC1)Nc1c(Cl)cccc1Cl [Example 298, (2S)-Cyclohexyl({[3-({[(2,6-dichlorophenyl)amino]carbonyl}amino)-2-quinolinyl]carbonyl}amino)ethanoic acid]
480 nM | O=C(Nc1cc2ccccc2nc1C(=O)N[C@H](C(=O)O)C1CCCCC1)Nc1c(Cl)cc(Cl)cc1Cl [Example 299, (2S)-Cyclohexyl({[3-({[(2,4,6-trichlorophenyl)amino]carbonyl}amino)-2-quinolinyl]carbonyl}amino)ethanoic acid]
27 nM | Cc1cc(C)c(NC(=O)Nc2cc3ccccc3nc2C(=O)N[C@H](C(=O)O)C2CCCCC2)c(C)c1 [Example 300, (2S)-Cyclohexyl({[3-({[(2,4,6-trimethylphenyl)amino]carbonyl}amino)-2-quinolinyl]carbonyl}amino)ethanoic acid]
350 nM | O=C(Nc1cc2ccccc2cc1C(=O)NC1(C(=O)O)CCCCCC1)Nc1c(Cl)cc(Cl)cc1Cl [Example 301, 1-({[3-({[(2,4,6-Trichlorophenyl)amino]carbonyl}amino)-2-naphthalenyl]carbonyl}amino)cycloheptanecarboxylic acid]
57 nM | O=C(Nc1cc2ccccc2cc1C(=O)NC1(C(=O)O)CCCCCCC1)Nc1c(Cl)cc(Cl)cc1Cl [Example 303, 1-({[3-({[(2,4,6-trichlorophenyl)amino]carbonyl}amino)-2-naphthalenyl]carbonyl}amino)cyclooctanecarboxylic acid]
